How the values were obtained:
lymphocytes = experiment: GLP toxicological studies, lymphocyte count, dogs; format: in vivo, Beagle dogs; settings: mean ± SD
Excerpt: T r eat m e nt N Ly m p h o c y te s Equivalent m ou se d o se
( mg /k g p. o. ga va g e) (109/ L ) ( mg /k g p.o ga va ge)
6 m ont h s W i sta r r at s
9 m ont h s Be ag le d og s
Eff ec t of t r ea t me nt wi t h O RY-2 00 1 a d mi ni st e r e d by or al ga va ge o n l y m ph oc yt e s ob se r ve d i n G LP
t ox i c ol ogi c a l st udi e s i n r at a nd do g. A ni ma l s we r e t re a t e d or al l y (fi ve c o ns e c ut i ve da ys/ we e k) by ga va ge
28 da ys or 6 mo nt hs ( ra t s) a nd 28 da ys or 9 mo nt hs (dogs). Data re prese nt de me a n ± S D. T he e q ui va l e n t
dos e i n m o use i s i n di c at e d. 1-wa y A N OV A a n d D u n ne t t’ s M ul ti pl e C o m pa ri so n t e st wa s use d.

spinal cord of EAE mice = experiment: Microarray, spinal cord of EAE mice, effector phase (E), 24 h after treatment; ORY-2001 0.5 mg/kg, FTY720 1.0 mg/kg; format: in vivo, mouse
Experimental: We evaluated differences in gene expression induced by the treatment using real-time PCR and by microarray hybridization analysis. First, total RNA was isolated from brain and spinal cord segments from EAE mice using Qiazol™ and the RNeasy MiniKit™ extraction kit (Qiagen). Evaluation of RNA quality was performed with the Agilent 2100 bioanalyzer and NanoDrop™ ND-1000 (Thermo Scientific, Dartford, Kent, UK). After DNAse I treatment, RNA (1 µg/sample) was reverse transcribed using RevertAid First strand cDNA Synthesis kit (Fermentas) and random hexamer primers. For evaluating the expression of the inflammatory markers TNFα, IL-1β, IP10, IL-4, and CCL5, real time PCR was performed by using iQ SYBR Green Supermix (Bio-Rad, Feldkirchen, Germany) according to manufacturer’s instructions in a BIORAD CFX96 thermal cycler. Primer sequences and PCR conditions are indicated in Supplementary Materials Table S3. Microarray studies were performed by using DNA microarray oligo probes designed with Tethys, Oryzon’s proprietary software which is based on the in silico thermodynamic simulation of hybridization. Agilent probes were added for genes which yielded no probes, complying with Tethys criteria. Control probes were used to assess detection limits and range, to verify spatial homogeneity, and to determine experimental within-array variation. Microarray slides were synthesized by Agilent. Total RNA (0.5 µg) amplification and labeling with Cy3 or Cy5 was carried out using a modified Eberwine mRNA amplification procedure employing the MessageAmp™ II aRNA Amplification kit from Ambion (ThermoFisher Scientific, Oxford, UK). […]
For the gene expression studies, data from microarray assays were normalized by modified nonlinear Q-splines normalization method and Log2(Sample/Vehicle) values calculated without background correction (which permits robust selection of differentially expressed genes yet may lead to sub-estimation of the magnitude of change for genes expressed near the detection limit). Differential expression was assessed with the proprietary Polyphemus software using robust statistics on the average technical replicates (3 replicates/gene oligo datapoint) after removing eventual outlier points (caused by dust or array imperfections). […] The p values were calculated after outlier elimination based on the absolute value of the regularized t-statistics, which uses a Bayesian framework to derive the algorithm, using internal replicated controls to assess the minimum technical variability of the process. Correlation between gene expression changes induced by different treatments was analysed by calculating the Pearson correlation coefficient r using the Log2(Treatment/Veh) values for all genes expressed above background level (n). […]

Nc1nnc(CN[C@@H]2C[C@H]2c2ccc(OCc3ccccc3)cc2)o1 [ORY-2001]
Lymphocytes (lymphocytes; 9 months Beagle dogs, 0.025 mg/kg p.o. gavage (equivalent mouse dose 0.15)): 2.10 ± 0.60 109/L | Lymphocytes (lymphocytes; 9 months Beagle dogs, 0.075 mg/kg p.o. gavage (equivalent mouse dose 0.45)): 2.90 ± 0.30 109/L | Lymphocytes (lymphocytes; 9 months Beagle dogs, 0.150 mg/kg p.o. gavage (equivalent mouse dose 0.90)): 2.75 ± 1.04 109/L | Lymphocytes (lymphocytes; 28 d Beagle dogs, 0.025 mg/kg p.o. gavage (equivalent mouse dose 0.15)): 3.31 ± 0.41 109/L | Lymphocytes (lymphocytes; 28 d Beagle dogs, 0.075 mg/kg p.o. gavage (equivalent mouse dose 0.45)): 2.88 ± 1.02 109/L | Lymphocytes (lymphocytes; 28 d Beagle dogs, 0.225 mg/kg p.o. gavage (equivalent mouse dose 1.35)): 4.33 ± 1.08 109/L | expression of Aif1, Bst2, Rgs4 and Mtap9 (spinal cord of EAE mice): downregulated Aif1 | expression of Ogn (spinal cord of EAE mice): preserved the expression of Ogn | expression of Ptpn11, Kif1b and Pik3r1 (spinal cord of EAE mice): prevented the induction of Ptpn11

CCCCCCCCc1ccc(CCC(N)(CO)CO)cc1 [FTY720, Fingolimod, reference compound]
expression of Ogn (spinal cord of EAE mice): downregulated by FTY720
